Key:
primary cortical neurons [1] = assay: Neurite outgrowth assay of primary cortical neurons (image-based HCS) against paclitaxel-induced neurotoxicity; type: cell-based, mouse; conditions: for activity at 0.01 µM / activity at 1 µM: Mus musculus, Primary cortical neuron; for activity at 0.01 µM: read-out: C: Neurite outgrowth (% of control) of test compound (10 nM) + paclitaxel (1 μM); for activity at 1 µM: read-out: D: Neurite outgrowth (% of control) of test compound (1000 nM) + paclitaxel (1 μM)
Text: (§1) Herein, we wish to report that an in vitro neurite outgrowth assay of cortical neurons integrated with an image-based high-content screening (HCS) platform is used to evaluate a commercially available library of 78 minoxidil-related derivatives,[22] leading to the identification of a series of analogues able to prevent or alleviate paclitaxel-induced neurotoxicity. The project began with screening compounds with the primary culture of cortical neurons from neonatal mice. More specifically, cerebral cortex neurons cultured from P0 C57BL/6J mouse pups were incubated with a test compound (10 and 1000 nM) prior to paclitaxel (1 μM) treatment. Subsequently, both neurite outgrowth and synaptogenesis were measured to evaluate the test compounds’ neuroprotective capacity. […] This unique feature is preserved for the core-structure screening of our in-house library in the following subject. Moreover, the substituent at the C4 position appears flexible in terms of structural diversity. Collectively, CSV0A024807, the only one displaying the best neuroprotective potency on both neurite outgrowth and synaptogenesis assays, was thus elected as a potential hit compound for further development.
(§2) Primary cortical or DRG cells were fixed with 4% paraformaldehyde for 15 min following compound and paclitaxel treatment. After washing with PBS, the fixed cells were permeabilized with PBS containing 0.05% Triton X-100 for 20 min and then blocked with commercial blocking buffer (#GTX30963; GeneTex, USA) at room temperature for 1 h. Subsequently, the cortical cells were stained for the extending processes and synaptic puncta by using anti-MAP2 (#MBS502140, 1:500; Mybiosource, USA) and anti-synaptophysin (#ab32127, 1:500; Abcam, UK) overnight. DRG cells were stained for the neurite and neuron nucleus by using anti-β III tubulin (#D71G9, 1:600; Cell Signaling, USA) and anti-NeuN monoclonal antibody (#MAB377, 1:400; Millipore, USA) overnight. On the second day, the samples were washed for 30 min with wash buffer and incubated with secondary antibodies (Alexa-488, 647 1:600; Thermo Fisher, USA) and 4 μg/mL Hoechst 33258 (#94403-1ML, 1:100; Merck, USA) at room temperature for 1 h. In the initial experiments of screening the potential neuroprotective compound for CIPN, ImageXpress^Micro (IXM) high-content imaging system (Molecular Devices, USA) driven by MetaXpress software was used. Images of treated cells were automatically acquired by using a 10× objective. Twenty-one images per well were taken in each of three channels (DAPI, FITC, and Cy5) to create a whole view of the entire neural network. The integrity of the neural network was evaluated using TIF images by importing them into MetaXpress software for analysis using the module for multiparameter, such as Neurite Outgrowth, Cell Scoring, and Transfluor. Furthermore, the score of synaptogenesis was analyzed in AcuityXpress software (Molecular Devices, USA).

primary cortical neurons [2] = assay: Synaptogenesis assay of primary cortical neurons (image-based HCS) against paclitaxel-induced neurotoxicity; type: cell-based, mouse; conditions: for activity at 0.01 µM / activity at 1 µM: Mus musculus, Primary cortical neuron; for activity at 0.01 µM: read-out: A: Synaptogenesis (% of control) of test compound (10 nM) + paclitaxel (1 μM); for activity at 1 µM: read-out: B: Synaptogenesis (% of control) of test compound (1000 nM) + paclitaxel (1 μM); for attenuation of synaptogenesis inhibited by paclitaxel (in words): test compound 10 and 1000 nM prior to paclitaxel 1 μM, Figure 1A
Text: as §1, §2

[3] = test compound 10 nM + paclitaxel 1 μM, mean ± SE
[4] = test compound 1000 nM + paclitaxel 1 μM, mean ± SE

| SMILES | activity at 0.01 µM (primary cortical neurons [1]; [3]) | activity at 1 µM (primary cortical neurons [1]; [4]) | activity at 0.01 µM (primary cortical neurons [2]; [3]) | activity at 1 µM (primary cortical neurons [2]; [4]) | attenuation of synaptogenesis inhibited by paclitaxel (in words) (primary cortical neurons [2]) | protective effect in the neurite outgrowth assay (in words) (primary cortical neurons [1]; test compound 10 and 1000 nM prior to paclitaxel 1 μM, Figure 1A) | activity at 0.01 µM (primary cortical neurons [1]) | activity at 1 µM (primary cortical neurons [1]) | activity at 0.01 µM (primary cortical neurons [2]) | activity at 1 µM (primary cortical neurons [2]) |
| --- | --- | --- | --- | --- | --- | --- | --- | --- | --- | --- |
| CN(C)c1ccc(/C=N/Nc2cc(N3CCCCC3)nc(N3CCCCC3)n2)cc1 [CSV0A041618] | 55 ± 2% | 55 ± 2% | 83 ± 2% | 64 ± 7% | significantly attenuated |  |  |  |  |  |
| Oc1cccc(/C=N/Nc2cc(N3CCCC3)nc(N3CCCC3)n2)c1 [CSV0A055770] | 82 ± 4% | 75 ± 4% | 24 ± 2% | 25 ± 2% |  |  |  |  |  |  |
| Oc1ccccc1/C=N/Nc1cc(N2CCOCC2)nc(N2CCOCC2)n1 [CSV0B002764] | 66 ± 6% | 67 ± 4% | 48 ± 5% | 47 ± 3% |  |  |  |  |  |  |
| CN(C)c1cc(N/N=C/c2cccc(O)c2)nc(N(C)C)n1 [CSV0A021190] | 43 ± 1% | 50 ± 2% | 37 ± 1% | 45 ± 1% |  |  |  |  |  |  |
| CCN(CC)c1ccc(/C=N/Nc2cc(N3CCOCC3)nc(N3CCOCC3)n2)cc1 [CSV0A024804] | 68 ± 2% | 66 ± 1% | 67 ± 8% | 62 ± 3% |  |  |  |  |  |  |
| CCCN(CCC)c1cc(N/N=C/c2ccccc2OC)nc(N(CCC)CCC)n1 [CSV0A011999] | 45 ± 5% | 53 ± 3% | 33 ± 4% | 37 ± 2% |  |  |  |  |  |  |
| O=C(NNc1cc(N2CCOCC2)nc(N2CCOCC2)n1)c1ccccc1 [CSV0A051549] | 71 ± 1% | 68 ± 1% | 86 ± 6% | 77 ± 7% |  | significant protective effect |  |  |  |  |
| Oc1cccc(/C=N/Nc2cc(N3CCCCC3)nc(N3CCCCC3)n2)c1 [CSV0B001120] | 95 ± 9% | 82 ± 2% | 43 ± 5% | 41 ± 5% |  |  |  |  |  |  |
| CN(C)c1cc(NNC(=O)CCc2ccccc2)nc(N(C)C)n1 [CSV0B008273] |  |  |  |  |  |  | 46 ± 3% | 53 ± 2% | 39 ± 2% | 36 ± 2% |
| COc1cc(/C=N/Nc2cc(N3CCOCC3)nc(N3CCOCC3)n2)ccc1O [CSV0B002704] | 79 ± 7% | 65 ± 3% | 38 ± 2% | 29 ± 6% |  |  |  |  |  |  |
| CCN(CC)c1ccc(/C=N/Nc2cc(N3CCCCC3)nc(N3CCCCC3)n2)cc1 [CSV0A023090] | 57 ± 4% | 58 ± 3% | 82 ± 4% | 86 ± 0.4% |  |  |  |  |  |  |
| O=[N+]([O-])c1ccc(/C=N/Nc2cc(N3CCCCC3)nc(N3CCCCC3)n2)cc1 [CSV0A011998] | 77 ± 5% | 61 ± 6% | 75 ± 1% | 55 ± 2% |  |  |  |  |  |  |
| CCN(CC)c1cc(N/N=C/c2ccc(Cl)cc2)nc(N(CC)CC)n1 [CSV0A020149] | 52 ± 2% | 48 ± 3% | 43 ± 1% | 36 ± 1% |  |  |  |  |  |  |
| COc1ccc(/C=N/Nc2cc(N3CCCC3)nc(N3CCCC3)n2)cc1 [CSV0A024813] | 66 ± 2% | 63 ± 2% | 98 ± 4% | 81 ± 5% | significantly attenuated |  |  |  |  |  |
| CCN(CC)c1cc(NNC(=O)c2ccccc2OC)nc(N(CC)CC)n1 [CSV0A008237] | 56 ± 1% | 50 ± 9% | 45 ± 4% | 45 ± 8% |  |  |  |  |  |  |
| CN(C)c1cc(NNC(=O)c2ccc(Cl)cc2)nc(N(C)C)n1 [CSV0A023089] | 47 ± 2% | 50 ± 5% | 38 ± 3% | 39 ± 6% |  |  |  |  |  |  |
| CCCN(CCC)c1cc(N/N=C/c2ccc(Cl)cc2)nc(N(CCC)CCC)n1 [CSV0A061665] | 37 ± 7% | 27 ± 3% | 27 ± 3% | 27 ± 5% |  |  |  |  |  |  |

| SMILES | activity at 0.01 µM (primary cortical neurons [1]; [3]) | activity at 1 µM (primary cortical neurons [1]; [4]) | activity at 0.01 µM (primary cortical neurons [2]; [3]) | activity at 1 µM (primary cortical neurons [2]; [4]) | attenuation of synaptogenesis inhibited by paclitaxel (in words) (primary cortical neurons [2]) | protective effect in the neurite outgrowth assay (in words) (primary cortical neurons [1]; test compound 10 and 1000 nM prior to paclitaxel 1 μM, Figure 1A) | activity at 0.01 µM (primary cortical neurons [1]) | activity at 1 µM (primary cortical neurons [1]) | activity at 0.01 µM (primary cortical neurons [2]) | activity at 1 µM (primary cortical neurons [2]) |
| --- | --- | --- | --- | --- | --- | --- | --- | --- | --- | --- |
| CCN(CC)c1cc(NNC(=O)CCc2ccccc2)nc(N(CC)CC)n1 [CSV0B009488] | 35 ± 4% | 44 ± 3% | 38 ± 3% | 34 ± 3% |  |  |  |  |  |  |
| COc1ccccc1/C=N/Nc1cc(N2CCCCC2)nc(N2CCCCC2)n1 [CSV0A061666] | 91 ± 3% | 89 ± 7% | 41 ± 1% | 42 ± 4% |  |  |  |  |  |  |
| CCN(CC)c1cc(N/N=C/c2cccc(O)c2)nc(N(CC)CC)n1 [CSV0A007879] | 42 ± 5% | 35 ± 4% | 38 ± 3% | 26 ± 5% |  |  |  |  |  |  |
| COc1ccc(/C=N/Nc2cc(N(C)C)nc(N(C)C)n2)cc1 [CSV0A034004] | 54 ± 7% | 55 ± 4% | 65 ± 6% | 76 ± 2% |  |  |  |  |  |  |
| CCN(CC)c1cc(NNC(=O)c2ccc(C(C)(C)C)cc2)nc(N(CC)CC)n1 [CSV0B008884] | 41 ± 3% | 41 ± 4% | 35 ± 3% | 37 ± 3% |  |  |  |  |  |  |
| CC(C)(C)c1ccc(C(=O)NNc2cc(N3CCCC3)nc(N3CCCC3)n2)cc1 [CSV0A062713] | 85 ± 8% | 74 ± 5% | 33 ± 1% | 36 ± 2% |  |  |  |  |  |  |
| COc1cc(/C=N/Nc2cc(N3CCCC3)nc(N3CCCC3)n2)ccc1O [CSV0B016174] | 86 ± 3% | 76 ± 4% | 43 ± 3% | 36 ± 4% |  |  |  |  |  |  |
| COc1ccccc1/C=N/Nc1cc(N2CCCC2)nc(N2CCCC2)n1 [CSV0A055771] | 68 ± 6% | 68 ± 3% | 36 ± 2% | 40 ± 8% |  |  |  |  |  |  |
| CN(C)c1ccc(/C=N/Nc2cc(N3CCOCC3)nc(N3CCOCC3)n2)cc1 [CSV0A041617] | 93 ± 5% | 94 ± 1% | 30 ± 1% | 30 ± 1% |  |  |  |  |  |  |
| O=C(CCc1ccccc1)NNc1cc(N2CCOCC2)nc(N2CCOCC2)n1 [CSV0C009114] |  |  |  |  |  |  | 70 ± 7% | 65 ± 3% | 48 ± 5% | 49 ± 3% |
| Cc1ccc(S)c(Nc2cc(N)nc(N)n2)n1 [CSV0A0544S0] | 60 ± 2% | 57 ± 5% | 63 ± 5% | 52 ± 8% |  |  |  |  |  |  |
| Oc1ccc(/C=N/Nc2cc(N3CCOCC3)nc(N3CCOCC3)n2)cc1 [CSV0A013029] | 58 ± 2% | 54 ± 5% | 72 ± 2% | 84 ± 6% | significantly attenuated |  |  |  |  |  |
| CCN(CC)c1cc(N/N=C/c2ccc(O)c(OC)c2)nc(N(CC)CC)n1 [CSV0B009489] | 39 ± 4% | 41 ± 3% | 34 ± 3% | 36 ± 3% |  |  |  |  |  |  |
| CN(C)c1cc(N/N=C/c2cc3c(c([N+](=O)[O-])c2)OCO3)nc(N(C)C)n1 [CSV0A047583] | 63 ± 3% | 61 ± 3% | 66 ± 4% | 69 ± 5% |  |  |  |  |  |  |
| CN(C)c1cc(NNC(=O)c2ccccc2O)nc(N(C)C)n1 [CSV0A2327S0] | 55 ± 1% | 53 ± 5% | 42 ± 2% | 41 ± 5% |  |  |  |  |  |  |
| CCCN(CCC)c1cc(NNC(=O)CCc2ccccc2)nc(N(CCC)CCC)n1 [CSV0D043578] |  |  |  |  |  |  | 42 ± 5% | 48 ± 1% | 38 ± 3% | 42 ± 4% |
| O=[N+]([O-])c1ccc(/C=N/Nc2cc(N3CCCC3)nc(N3CCCC3)n2)cc1 [CSV0A024812] | 53 ± 3% | 60 ± 1% | 55 ± 6% | 62 ± 3% |  |  |  |  |  |  |
